The values below come from patent publication US20100137398A1, “USE OF HDAC INHIBITORS FOR THE TREATMENT OF GASTROINTESTINAL CANCERS” (NOVARTIS AG, priority 2007, published 2010).

For the experiment, the system named is Colo205 colon cancer xenograft. Briefly: Colo205 colon cancer xenograft model, tumor growth inhibition and delay. The class given is in vivo, Female athymic nude mice. Particulars: LBH589 30 mg/kg iv Mon/Wed/Fri for 3 weeks, 5-FU 75 mg/kg ip once a week for 3 weeks, or both. The method, then: Female athymic nude mice-were implanted subcutaneously with Col6205 colon cancer cells. When tumors reached a medan tumor volume of 220 mm3, mice were randomized into groups of 10 mice. Mice were treated with LBH589 at 30 mg/kg intravenously on Monday, Wednesday, Friday per week for 3 weeks, 75 mg/kg of 5-Fluorouracil intraperitoneally once a week for 3 weeks, or combination of the two agents. For tumor growth inhibition (FIG. 2A), compound activity was measured as the percent change in tumor volume of treated animals over control animals (% T/C). The percentage of regression was determined as the percent change in the final tumor volume at the end of the study over the starting tumor volume. For tumor growth delay (FIG. 2B), compound activity was measured as the change in median calculated time to the study end point (TTE), which was predefined as tumor volume of 1000 mm^3.

For `O=c1[nH]cc(F)c(=O)[nH]1` [5-FU, 5-Fluorouracil, reference compound], the “tumor growth inhibition (TGI) and tumor growth delay (TGD)” value is “led to tumor growth inhibition (TGI) and tumor growth delay (TGD)”. Also, the “Median TTE (time to study end point, tumor volume of 1000 mm^3)” value (vehicle 39.5 days) amounted to 44.5 days.
